Test system: AT11 on 2[G4]-(N3)127/(AT11)34/(Cy5)1 (aptadendrimer) (DNA, G4) TGGTGGTGGTTGTTGTGGTGGTGGTGGT
Experiment: steady-state and time-resolved fluorescence, fluorescence anisotropy
Conditions: K+ 65 mM KCl plus potassium phosphate; 20 mM phosphate pH 6.9, room temperature; 0.5 µM C8, aptadendrimer titrated; dendrimer core may contribute

- binding: yes
SMILES: CN(C)c1ccc2cc3ccc(N(C)C)cc3[n+](CCCCCCCCNC(=O)c3ccc(I)cc3)c2c1

Source: PMC9696068 (2022)
